Results reported in patent publication US10736877B2, “Tryptamine-based ship inhibitors for the treatment of cancer” (THE RESEARCH FOUNDATION FOR THE STATE UNIVERSITY OF NEW YORK, priority 2015, dated 2020).
“Also recorded” adds a separate entry of the source.

Key:
SHIP1 = assay: Malachite green phosphatase release assay, SHIP1; settings: for SHIP1 Inhibition: Malachite green assay at 1mM
Description: Compounds were dissolved in 100% DMSO and then diluted to indicate final concentrations of performed assays (5% DMSO final concentration).
For this purpose, OPM2 cells were lysed in IP-lysis buffer (20 mM Tris, 150 mM NaCl, 1 mM EDTA, 1 mM EGTA, 1% Triton X100, 1 mM PMSF, Halt protease inhibitor), and SHIP1 or OCRL were immuno-precipitated using mouse IgG antibodies from Santa Cruz Biotechnology (Santa Cruz, Calif.). Beads were washed four times with IP lysis buffer and once with TBS/MgCl2 (10 mM) and resuspended in TBS/MgCl2. SHIP inhibitors (200 μM) were added to the beads for 5 minutes, after which immunoprecipitated SHIP1 was incubated in the presence of 100 μM PtdIns(3,4,5)P3 (Echelon Biosciences, Salt Lake City, Utah), whereas immunoprecipitated OCRL was incubated in the presence of 100 μM PtdIns(4,5)P2 for 30 minutes. Malachite green solution was added according to manufacturer's instructions, and the plate was read after 20 minutes.

[1] = system: PKB, pS6 and ERK phosphorylation in HCT116 cells; assay: Western blotting of signaling, HCT116 cells; assay type: cell-based, human; settings: HCT116, serum starved; K149 10 μM 1 h, LY2940002 20 μM 1 h, EGF 10 ng/mL 15 minutes
Description: (§1) Western blotting. HCT116 and CACO-2 cells were serum starved by incubating for 2 h, after which cells were stimulated for 15 minutes with EGF (10 ng/mL), or stimulated for 1 h with LY2940002 (20 μM) or SHIP2 inhibitor K149 (10 μM). Subsequently, cells were washed with PBS and lysed on ice in 300 μL 2× concentrated Laemmli buffer (100 mM Tris-HCl (pH 6.8), 200 mM dithiothreitol, 4% SDS, 0.1% bromophenol blue, 20% glycerol, and 2% DTT) and boiled for 5 minutes at 95° C. Cell extracts were resolved by SDS-PAGE and transferred to polyvinylidene difluoride membranes (Merck chemicals BV, Amsterdam, the Netherlands). Membranes were blocked in 50% odyssey blocking buffer (LI-COR Biosciences, Lincoln, Nebr.) in PBS/0.05% Tween-20 and incubated overnight at 4° C. with primary antibody. After washing in PBS-T, membranes were incubated with IRDye® antibodies (LI-COR Biosciences, Lincoln, Nebr.) for 1 h. Detection was performed using Odyssey reader and analyzed using manufacturers software.

[2] = system: PKB, pS6 and ERK phosphorylation in CACO-2 cells; assay: Western blotting of signaling, CACO-2 cells; assay type: cell-based, human; settings: CACO-2, serum starved; K149 10 μM 1 h, LY2940002 20 μM 1 h, EGF 10 ng/mL 15 minutes
Description: as §1

SHIP2 = assay: Malachite green phosphatase release assay, SHIP2; assay type: biochemical, human; settings: for SHIP2 Inhibition: Malachite green assay at 1mM
Text: Detection of phosphatase enzymatic activity.

OPM2 = assay: Cell growth, OPM2 multiple myeloma cell line; settings: OPM2, increasing concentrations, compared with K103
Description: (§2) Cells were treated in triplicate or more with increasing concentrations of compounds.
(§3) All cell culture media were supplemented with 100 U/mL penicillin, 100 mg/mL streptomycin (Life technologies, Bleiswijk, NL) and 10% Fecal Calf Serum (FCS, Sigma-Aldrich, St. Louis, USA). Cells were maintained at 37° C. in a 5% CO2 humidified setting.

K562 = assay: Cell growth, K562 leukemia cell line; settings: K562, increasing concentrations, compared with K103
Description: as §2, §3

MCF-7 = assay: Cell growth, MCF-7 breast cancer cell line; settings: MCF-7, increasing concentrations, compared with K103
Description: as §2, §3

[3] = system: MDSC, iTreg cells, nTreg cells, neutrophils; assay: Immune cell numbers and frequencies by flow cytometry in dosed mice; assay type: in vivo; settings: 10 mg/kg in 5% DMSO for 6 days
Description: Mice were dosed for 6 days with […]

[4] = system: HCT116, RKO, LS-174T, CACO-2 and COLO 320; assay: Cell viability in colorectal cancer cell lines with and without PI3K mutations; settings: 3 cell lines with PIK3CA mutation, 2 without
Description: Cell lines. […] Colorectal cancer cell lines HCT116 CACO-2, COLO 320, and RKO were cultured in Dulbecco's Modified Eagles Medium (DMEM, Lonza, Basel, Switzerland). […] All cell culture media were supplemented with 100 U/mL penicillin, 100 mg/mL streptomycin (Life technologies, Bleiswijk, NL) and 10% Fecal Calf Serum (FCS, Sigma-Aldrich, St. Louis, USA). Cells were maintained at 37° C. in a 5% CO2 humidified setting.
Cell viability assay. Cell viability was assessed using MTT assays. Cells were incubated with different concentrations of SHIP2 inhibitors, and/or chemotherapeutic agent 5-FU. 24 h, 48 h, 72 h, and 96 h after incubation cells were incubated with 5 mM MTT (3-(4,5-Dimethylthiazol-2-yl)-2,5-diphenyltetrazolium bromide) for 3 h and colorimetric changes were measured using a microplate reader (Model 680XR Bio-Rad) at 490 and 595 nm.

MDA-MB-231 = assay: Cell growth, MDA-MB-231 breast cancer cell line; settings: MDA-MB-231, increasing concentrations, compared with K103
Description: as §2, §3

[5] = High fat diet (diet-induced obese) mice: weight, bone health, toxicity; settings: HFD mice, 2× week, i.p., 10 mg/kg, two weeks
CACO-2 = assay: MTT cell viability assay, CACO-2; assay type: cell-based; settings: for cell viability (MTT): CACO-2
HCT116 = assay: MTT cell viability assay, HCT116; assay type: cell-based; settings: for cell viability (MTT): HCT116
breast cancer cells = settings: cited from earlier work

Cc1c(CCN)c2ccccc2n1Cc1ccccc1.Cl [Compound K123, 2-[1-benzyl-2-methyl-5-1H-3-yl] ethanaminium chloride]
melting point: 158 to 161 °C | SHIP1 Inhibition (SHIP1): 15%

EGF: Epidermal Growth Factor, used to stimulate cellular signaling [reference compound]
ERK phosphorylation [1]: increased | PKB phosphorylation [1]: increased | pS6 phosphorylation [1]: increased | ERK phosphorylation [2]: increased | PKB phosphorylation [2]: increased | pS6 phosphorylation [2]: increased

Cc1c(CCN)c2ccccc2n1Cc1ccccc1Cl.Cl
melting point: 161 to 169 °C

Cc1c(CCN)c2cc(Br)ccc2n1Cc1ccccc1Cl.Cl [Compound K148, 2-[1-(2-chlorobenzyl)-2-methyl-5-(bromo)-1H-3-yl] ethanaminium chloride]
SHIP2 Inhibition (SHIP2): 70% | SHIP1 Inhibition (SHIP1): 77%

Cc1c(CCN)c2ccccc2n1Cc1ccccc1Cl.Cl [Compound K124, 2-[1-(2-chlorobenzyl)-2-methyl-5-1H-3-yl] ethanaminium chloride]
SHIP2 Inhibition (SHIP2): 70% | SHIP1 Inhibition (SHIP1): 62%

CSc1ccc2c(c1)c(CCN)c(C)n2Cc1ccc(Cl)cc1.Cl [Compound K160, 2-[1-(4-chlorobenzyl)-2-methyl-5-(methylmercapto)-1H-3-yl] ethanaminium chloride]
melting point: 198 to 209 °C | SHIP2 Inhibition (SHIP2): 61% | SHIP1 Inhibition (SHIP1): 78%

CSc1ccc2c(c1)c(CCN)c(C)n2Cc1ccccc1.Cl [Compound K125, 2-[1-benzyl-2-methyl-5-(methylmercapto)-1H-3-yl] ethanaminium chloride]
melting point: 178 to 189 °C | SHIP2 Inhibition (SHIP2): 80% | SHIP1 Inhibition (SHIP1): 64%

CSc1ccc2c(c1)c(CCN)c(C)n2Cc1ccc(Cl)cc1Cl.Cl [Compound K149, 2-[1-(2,4-dichlorobenzyl)-2-methyl-5-(methylmercapto)-1H-3-yl] ethanaminium chloride]
control of cancer cell growth (OPM2): more effective at controlling cancer cell growth | control of cancer cell growth (K562): more effective at controlling cancer cell growth | control of cancer cell growth (MCF-7): more effective at controlling cancer cell growth | MDSC counts [3]: significant increases | iTreg cell counts [3]: significant increases | nTreg cell counts [3]: significant increases | neutrophil counts [3]: significant increases | sensitivity by PI3K (PIK3CA) mutational status [4]: no difference in sensitivity to SHIP2 inhibition based on PIK3CA mutational status; also recorded: No relationship between SHIP2 inhibition and PI3K mutational status exists | control of cancer cell growth (MDA-MB-231): more effective at controlling cancer cell growth | % body weight [5]: significant reductions | total weight [5]: significant reductions; also recorded: promotes weight loss | toxicity [5]: No toxicity was observed | bone mineral content (BMC) ([5]; DEXA): no significant reduction or increase | bone mineral density (BMD) ([5]; DEXA): no significant reduction or increase | ERK phosphorylation [1]: not affected by either inhibitor; also recorded: affected by neither inhibitor | PKB phosphorylation [1]: diminished; also recorded: decreased | pS6 phosphorylation [1]: drastically increased | ERK phosphorylation [2]: not affected by either inhibitor; also recorded: affected by neither inhibitor | PKB phosphorylation [2]: diminished; also recorded: decreased | pS6 phosphorylation [2]: drastically increased | effects compared to K103 (SHIP1; FIG. 1A-C, FIG. 1C is recombinant human tSHIP1): superior effects compared to K103 | SHIP1 Inhibition (SHIP1): 81% | cell viability (MTT) (CACO-2): dose-dependent reduction in cell viability; also recorded: more sensitive to the K149 inhibitor; also recorded: dose-dependent cell death | 5-FU-induced cell death with SHIP2 inhibitor co-treatment (CACO-2; CACO-2, K149 2 uM with increasing concentrations of 5-FU): sensitizes CRC cells to the 5-FU treatment; also recorded: enhanced | cell viability (MTT) (HCT116): dose-dependent reduction in cell viability; also recorded: more sensitive to the K149 inhibitor; also recorded: induced cell death at lower concentrations in HCT116 cells than CACO-2 cells; also recorded: dose-dependent cell death | 5-FU-induced cell death with SHIP2 inhibitor co-treatment (HCT116; HCT116, K149 2 uM with increasing concentrations of 5-FU): sensitizes CRC cells to the 5-FU treatment; also recorded: enhanced

CSc1ccc2c(c1)c(CCN)c(C)n2Cc1ccc(Cl)cc1.Cl [Compound K103, reference compound]
killing breast cancer cells (breast cancer cells): effective in killing breast cancer cells | SHIP2 activity (SHIP2; recombinant SHIP2, 500 uM, vs vehicle control (DMSO), FIG. 5): inhibition of the SHIP2 activity | cell viability (MTT) (CACO-2; hydrochloride): dose-dependent reduction in cell viability; also recorded: dose-dependent cell death | cell viability (MTT) (HCT116; hydrochloride): dose-dependent reduction in cell viability; also recorded: induced cell death at lower concentrations in HCT116 cells than CACO-2 cells; also recorded: dose-dependent cell death
